SMILES strings stand for the structures.

Conditions in the first data set: not given
What is called boiling point is the temperature at which the vapour pressure of the liquid equals the pressure above it. Broadly, the melting point is the temperature of the solid-liquid transition. For `CC=CC(=O)O`, the boiling point amounted to 185 °C, the log10 vapour pressure (mmHg) is -0.542 and the melting point was found to be 72 °C.
The molecule `C=C(CC)c1ccccc1` gave a boiling point of 182 °C.
The molecule `FC(F)C(F)Cl` (stereo not drawn) returned a boiling point of 17 °C.
For the molecule `Cc1ccc(C(C)C)c(C)c1`, the boiling point amounted to 197 °C and the melting point was -82 °C.
Consider `Cc1cc(Cl)nc2ccccc12`, for which the boiling point amounted to 296 °C and the melting point was 59 °C.
In the case of `CCC1(O)CCCCC1`, the boiling point amounted to 166 °C and the melting point came to 34.5 °C.
Molecule `O=C(Cl)c1cc(C(=O)Cl)cc(C(=O)Cl)c1` yielded a melting point of 36.3 °C.
The molecule `Clc1sc(Cl)c(Cl)c1Cl` displayed a boiling point of 233 °C and a melting point of 30.5 °C.
Molecule `CCCOC(=O)OCCC` gave a boiling point of 168 °C.
Molecule `CC=CCc1ccccc1` gave a boiling point of 176 °C.
Consider `ClCCCBr`, for which the boiling point came out at 143 °C, the log10 vapour pressure (mmHg) is 0.806, the melting point is -58.9 °C and the ready biodegradability result was “not readily biodegradable”.
In turn, `CCC(=O)c1cccc(OC)c1` returned a boiling point of 259 °C.
`C[Si](C)(C)c1ccccc1` gave a boiling point of 170 °C.
Molecule `FC(F)C(F)(F)F` gave a boiling point of -48.5 °C, a log10 vapour pressure (mmHg) of 4.02 and a melting point of -103 °C.
The molecule `CN(C)c1cccc([N+](=O)[O-])c1` came in with a boiling point of 282 °C and a melting point of 60.5 °C.
For `COc1ccc(CCC(C)=O)cc1`, the melting point came to 8 °C.
In general, logP refers to the decadic logarithm of the partition coefficient of the neutral form, usually between octanol and water. Read a high logP as higher lipophilicity. As for `Brc1ccc(Oc2ccc(Br)cc2Br)cc1`, the log10 Koa was determined as 9.5, the log10 vapour pressure (mmHg) was -6.17 and the lipophilicity (logP) stood at 5.94.
`COC(=O)c1ccc(O)cc1`: the log10 Koa worked out at 8.57 and the melting point worked out at 131 °C.
Turning to `Cc1cccc(F)c1`, the boiling point came to 115 °C, the log10 vapour pressure (mmHg) came to 1.34 and the melting point was -87 °C.
`CC(=O)OC(OC(C)=O)c1ccc([N+](=O)[O-])o1`: the melting point is 91 °C.
`CCN(CC)CCOC(=O)C1(C2CCCCC2)CCCCC1.Cl` yielded a melting point of 165 °C.
`CC1CCCS1` (stereo not drawn) returned a boiling point of 134 °C and a melting point of -101 °C.
In the case of `O=S(=O)(O)c1ccc(Cl)cc1`, the melting point turned out to be 67 °C and the ready biodegradability result is reported as “readily biodegradable”.
Take `Cc1ccc2cc3ccc4ccccc4c3cc2c1`: the melting point came to 183 °C.
`S=c1sccs1` displayed a melting point of 49 °C.
`CCCc1cccc(CCC)c1O`: the boiling point turned out to be 256 °C and the melting point amounted to 27 °C.
`CCCOC(=O)C(=O)OCCC` displayed a boiling point of 211 °C and a melting point of -44.3 °C.
On to `CC(=O)N(c1onc(C)c1C)S(=O)(=O)c1ccc(N)cc1`, for which the melting point was determined as 194 °C.
`Cc1cc(Cl)cc(Cl)c1` gave a boiling point of 202 °C and a melting point of 26 °C.
Consider `COP(=S)(OC)Oc1ccc(C#N)cc1`, for which the log10 vapour pressure (mmHg) is -3.1, the melting point stood at 14.5 °C and the ready biodegradability entry is recorded as “not readily biodegradable”.
`C=C(C)CCC(C)=O` yielded a boiling point of 150 °C.
Turning to `CCCCCCCCCCCCCCCCCCC(=O)O`, the boiling point was 300 °C and the melting point came out at 69.4 °C.
Turning to `FC(Cl)(Cl)Br`, the boiling point amounted to 52 °C and the melting point is -106 °C.
Molecule `CC(=O)Oc1ccccc1[N+](=O)[O-]` came in with a log10 vapour pressure (mmHg) of -2.66 and a melting point of 40.5 °C.
`O=C(Nc1ccc(Oc2ccc(Cl)cc2)c(Cl)c1)c1cc(I)cc(I)c1O` had a melting point of 169 °C.
Regarding `OC(c1ccccc1)c1ccccc1`, the boiling point was 298 °C, the log10 Koc (L/kg) came to 2.34, the log10 vapour pressure (mmHg) was -4.56 and the melting point stood at 69 °C. Further, the ready biodegradability result is given as “readily biodegradable”.
Molecule `Cc1cc(NC(N)=O)ccc1F` displayed a log10 Koc (L/kg) of 1.75.
As to `CC1(C)N=C(N)N=C(N)N1c1ccc(Cl)cc1`, the melting point was found to be 146 °C.
As for `COC(=O)[C@@H]1C2CCC(C[C@@H]1OC(=O)c1ccccc1)N2C` (stereo partly drawn), the log10 vapour pressure (mmHg) was -6.72 and the melting point worked out at 98 °C.
As for `O=C(O)CCCCCCCCCCC(=O)O`, the melting point worked out at 128 °C.
Consider `O=C(Oc1cccc(O)c1)c1ccccc1`, for which the melting point was 134 °C and the ready biodegradability entry was “readily biodegradable”.
Take `C=C(C)OC(C)=O`: the boiling point came to 97 °C and the melting point is -92.9 °C.
In turn, `C[C@@H]1O[C@@H]1P(=O)(O)O` yielded a melting point of 94 °C.
In the case of `Nc1ccc(Nc2ccc([N+](=O)[O-])cc2[N+](=O)[O-])cc1`, the log10 vapour pressure (mmHg) was -10.2 and the melting point was determined as 188 °C.
Regarding `O=C=Nc1ccc(Cl)cc1`, the boiling point turned out to be 204 °C, the log10 vapour pressure (mmHg) was -0.712 and the melting point turned out to be 30 °C.

The same data set, now with this note: fish.
`CCCCC(CC)COC(=O)c1ccccc1C(=O)OCC(CC)CCCC` (stereo not drawn) had a log10 BCF of 2.77 and a log10 biotransformation half-life (days) of 0.44.
Molecule `COc1ccccc1[N+](=O)[O-]` registered a log10 BCF of 0.7 and a log10 biotransformation half-life (days) of -1.04.
`CCC(C)c1cccc(C(C)CC)c1O` (stereo not drawn) came in with a log10 BCF of 2.39 and a log10 biotransformation half-life (days) of -0.22.
The molecule `Clc1ccc(-c2cc(Cl)cc(Cl)c2Cl)cc1` gave a log10 biotransformation half-life (days) of 2.43.
In turn, `Brc1ccc(Oc2ccc(Br)cc2Br)cc1` returned a log10 BCF of 5.83 and a log10 biotransformation half-life (days) of 1.25.
Take `COP(=S)(OC)Oc1ccc(C#N)cc1`: the log10 BCF came out at 1.56 and the log10 biotransformation half-life (days) was found to be 0.23.

(Values after the OPERA property sets (Mansouri et al. 2018).)
